Among the data in PubChem BioAssay (NCI) are TGI values, retold here.

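1) Cells in 96-well plates. 2) Compound, 48 h, 5 concentrations. 3) Linear interpolation between surrounding doses. 4) Unreached endpoint = highest concentration. Definition used: TGI = concentration required for complete inhibition of growth.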 Where a SMILES comes first, the peptide text is derived from it. [ ]: non-standard residue; d: D form. The star is where a group is joined. ξ: configuration not given here. NMeF = CN[C@@H](Cc1ccccc1)C(=O)O; NMeV = CN[C@H](C(=O)O)C(C)C; ξNMeV = CNC(C(=O)O)C(C)C; Boc = CC(C)(C)OC(=O)*; OBn = c1ccc(CO*)cc1 Bounds are passed on as bounds.

Test systems include SNB-78 CNS; DMS 273 small cell lung; DLD-1 colon; UACC-257 melanoma; SF-295 CNS; LXFL 529 NSCLC; RPMI-8226 leukemia; KM20L2 colon; A549 NSCLC; M19-MEL melanoma; XF 498 CNS; HOP-18 NSCLC; DMS 114 small cell lung; BT-549 breast; RXF-631 renal.
What all share (experiment): inhibition of tumour cell growth, NCI panel, 48 h

Consider `Cc1ccc(Nc2nc(-c3ccc(-c4ccc([N+](=O)[O-])cc4)o3)cs2)cc1`, for which the TGI is greater than 100 µM in the assay with SNB-78 CNS; greater than 100 µM with DMS 273 small cell lung; greater than 100 µM with DLD-1 colon; 90 µM in the assay with UACC-257 melanoma; greater than 100 µM with SF-295 CNS; greater than 100 µM in the assay with LXFL 529 NSCLC. For the same compound, the TGI with RPMI-8226 leukemia, in the assay with KM20L2 colon, in the assay with A549 NSCLC and in the assay with M19-MEL melanoma was greater than 100 µM throughout.

In the case of `CC(C)C(C(=O)N(C)[C@H](C(=O)N1CCC[C@H]1C(=O)N(C)[C@@H](Cc1ccccc1)C(=O)OCc1ccccc1)C(C)C)N(C)C(=O)[C@@H](NC(=O)OC(C)(C)C)C(C)C` (some centres undefined) (Boc-V[ξNMeV][NMeV]P[NMeF]-OBn), the TGI in the assay on SNB-78 CNS, in the assay on XF 498 CNS, in the assay with DMS 273 small cell lung, in the assay with DLD-1 colon, in the assay with UACC-257 melanoma and in the assay with SF-295 CNS was greater than 31.6 µM each time. Further, the TGI in the assay on HOP-18 NSCLC is greater than 100 µM; in the assay with LXFL 529 NSCLC it was greater than 100 µM; in the assay on RPMI-8226 leukemia it was greater than 31.6 µM; with DMS 114 small cell lung, greater than 31.6 µM; in the assay on KM20L2 colon it was greater than 31.6 µM; with A549 NSCLC it was greater than 31.6 µM. Besides, the TGI with M19-MEL melanoma was greater than 31.6 µM.

For `C(=N\NC1=NCCN1)/c1ccc2ccccc2c1`, the TGI with UACC-257 melanoma stood at 29.3 µM; with SF-295 CNS, 29.9 µM; in the assay on RPMI-8226 leukemia it was 49.4 µM; with BT-549 breast it was 25.3 µM; with A549 NSCLC, 29.5 µM.

For `COc1ccc(N2C(=O)/C(=C/c3ccc(N(CCC#N)CCC#N)cc3)N=C2c2ccccc2)cc1`, the TGI in the assay on UACC-257 melanoma, in the assay with SF-295 CNS, in the assay with RPMI-8226 leukemia, in the assay on BT-549 breast and in the assay with A549 NSCLC was greater than 100 µM each time.

Turning to `CC(=O)OCC1OC(N=[N+]=[N-])C(OC(C)=O)C(OC(C)=O)C1OC1OC(COC(C)=O)C(OC(C)=O)C(OC(C)=O)C1OC(C)=O` (centres undefined), the TGI in the assay on SNB-78 CNS, in the assay with XF 498 CNS, in the assay on DMS 273 small cell lung, in the assay with UACC-257 melanoma, with SF-295 CNS and in the assay with LXFL 529 NSCLC was greater than 100 µM throughout. Moreover, the TGI in the assay on RPMI-8226 leukemia, with DMS 114 small cell lung, in the assay with RXF-631 renal, in the assay on KM20L2 colon, in the assay with A549 NSCLC and in the assay with M19-MEL melanoma was greater than 100 µM in each case.

As to `CCN(CC)c1c(C)nnn1C1OC(COC(C)=O)C(OC(C)=O)C(OC(C)=O)C1OC(C)=O` (centres undefined), the TGI in the assay on SNB-78 CNS, with DLD-1 colon, in the assay on UACC-257 melanoma, in the assay with SF-295 CNS, in the assay with HOP-18 NSCLC and in the assay on LXFL 529 NSCLC was greater than 100 µM each time. Further, the TGI with RPMI-8226 leukemia is 78.3 µM; in the assay on DMS 114 small cell lung, greater than 100 µM; with RXF-631 renal, greater than 100 µM; in the assay with KM20L2 colon, greater than 100 µM; in the assay on A549 NSCLC it was greater than 100 µM; in the assay on M19-MEL melanoma, greater than 100 µM.

Regarding `CCC(Nc1ncnc2nc[nH]c12)C(=O)O` (centres undefined), the TGI in the assay with UACC-257 melanoma, in the assay on SF-295 CNS, in the assay on RPMI-8226 leukemia, with BT-549 breast and in the assay on A549 NSCLC was greater than 100 µM each time.

Regarding `CC#COS(=O)(=O)c1ccc(C)cc1`, the TGI is greater than 100 µM in the assay with SNB-78 CNS; greater than 100 µM in the assay on DLD-1 colon; greater than 100 µM in the assay with UACC-257 melanoma; greater than 100 µM in the assay with SF-295 CNS; greater than 100 µM in the assay on LXFL 529 NSCLC; 60.2 µM with RPMI-8226 leukemia. The TGI with DMS 114 small cell lung, in the assay with KM20L2 colon, in the assay with A549 NSCLC and with M19-MEL melanoma was greater than 100 µM each time.

As to `O=C(NC1=C(Cl)C(=O)c2ccccc2C1=O)C(=O)C(C(=O)c1ccc2ccccc2c1)C1OC(=O)c2ccccc21` (centres undefined), the TGI was determined as 15.4 µM with SNB-78 CNS; 16.9 µM in the assay with DLD-1 colon; 5.48 µM in the assay on UACC-257 melanoma; 14.9 µM with SF-295 CNS; 17.7 µM in the assay with LXFL 529 NSCLC; 26.2 µM in the assay with RPMI-8226 leukemia. Also, the TGI with DMS 114 small cell lung was 15.1 µM; in the assay on KM20L2 colon, 18.6 µM; in the assay with BT-549 breast it was 17.3 µM; in the assay with A549 NSCLC it was 17.5 µM; in the assay with M19-MEL melanoma, 0.856 µM.

On to `O=C1CC(c2ccccc2)n2c(nc3ccccc32)N1` (centres undefined), for which the TGI in the assay on UACC-257 melanoma, in the assay on SF-295 CNS, with RPMI-8226 leukemia, in the assay with BT-549 breast and in the assay with A549 NSCLC was greater than 100 µM throughout.

Regarding `COc1ccc([C@H]2CC3C(=O)N(c4ccc(OC)cc4)C(=O)C3c3[nH]c4ccccc4c32)cc1` (some centres undefined), the TGI is greater than 100 µM in the assay on SNB-78 CNS; 95.9 µM in the assay on XF 498 CNS; greater than 100 µM in the assay on DMS 273 small cell lung; greater than 100 µM in the assay on DLD-1 colon; greater than 100 µM in the assay on UACC-257 melanoma; 78.3 µM in the assay with SF-295 CNS. Further, the TGI in the assay on LXFL 529 NSCLC, in the assay on DMS 114 small cell lung, in the assay on KM20L2 colon, in the assay with A549 NSCLC and in the assay on M19-MEL melanoma was greater than 100 µM throughout.

For `Cc1[nH]c2nccn2c(=O)c1CCO`, the TGI in the assay with UACC-257 melanoma, with SF-295 CNS, in the assay with RPMI-8226 leukemia, with BT-549 breast and with A549 NSCLC was greater than 10 µM each time.

With `Cn1cc2c3ccccc3nc-2c2ccccc21`, the TGI stood at 5.85 µM in the assay with UACC-257 melanoma; 10.4 µM in the assay with SF-295 CNS; 3.94 µM with RPMI-8226 leukemia; 14.7 µM in the assay on BT-549 breast; 5.65 µM in the assay on A549 NSCLC.

On to `COc1cc(/C=C/C(=N\NC(N)=S)c2sc(NNC(C)=O)nc2C)ccc1O`, for which the TGI in the assay on UACC-257 melanoma, with SF-295 CNS, in the assay on RPMI-8226 leukemia, in the assay with BT-549 breast and with A549 NSCLC was greater than 100 µM in each case.
